Values after ≈ are worked out from the molar mass of the structure shown. Values belong to the compound of their own block, whether it stands above or below them.
What was measured:
human NaV1.3 channels = target: T1, human NaV1.3 channels (Homo sapiens, UniProt Q9NY46); assay: NaV1.3 electrophysiology (patch clamp) in HEK-293 cells; assay type: cell-based
T1 construct: expressed in transfected cells; host or cells: HEK-293

[1] = Screening of excipients for their capability to dissolve LAC-34 free base at room temperature; assay type: physicochemical; details: 22 °C, thermodynamic from solid
Protocol: (§1) HPLC analytical methodology was developed, using LAC-34 free base at room temperature (21-23° C.). A liquid's ability to dissolve LAC-34 was screened by adding a known mass of LAC-34 to a known volume/mass of liquid. Saturation solubility was measured by adding an excess of drug substance and allowing the suspension to equilibrate while stirring for 2-3 days. Four solutions of different concentrations of LAC-34 (8.1 mcg/mL to 0.98 mg/mL) plus a blank were typically tested in triplicate. Excellent linearity of the recovery was obtained over […] in LAC-34 concentrations and the relative standard deviations of peak areas for all LAC-34 solutions were less than 0.5%.
Various excipients were tested for their capability to dissolve LAC-34, free base.

[2] = Physical state of LAC-34 in solvents when tested at 4° C.; assay type: physicochemical
Protocol: When tested at 4° C., 20% LAC-34 in benzyl alcohol was a solution, 5% LAC-34 in propylene glycol was a gel, 5% LAC-34 in isopropyl myristate was a suspension, 5% LAC-34 in isopropyl palmitate was a solid, 5% LAC-34 in isopropyl alcohol was a suspension and cetyl alcohol was a solid (melting point=49.3° C.)

[3] = Saturation solubility of LAC-34 free base in selected solvents (HPLC); assay type: physicochemical; details: 22 °C, thermodynamic from solid
Protocol: as §1
The saturation solubility of LAC-34 was measured in capric/caprylic triglycerides (CCT), dimethylsulfoxide (DMSO), ethanol, isopropanol, isopropyl myristate (IPM), pentane, propylene glycol (PG), and water. CCT and IPM were selected for further work since they can function as emollients and oily vehicles in creams. DMSO is a solvent and a penetration enhancer. Ethanol and isopropanol are volatile solvents and rapid evaporation of a solvent like ethanol and isopropyl alcohol may be important for minimizing therapeutic onset time. Propylene glycol has multiple functions in dermal formulations, the most important of which are solubilization and penetration enhancement.
The analytical HPLC method described in Example 1 was used.
All of the solvents, with the exception of water, were able to dissolve large quantities of LAC-34. LAC-34, as the free base, was very soluble also in DMSO. Both IPM and CCT, which are semi-polar emollient oils, had also high solubilization capacity for LAC-34. Propylene glycol (PG), which has multiple actions for dermal drug delivery (see Table 1), was also able to solubilize significant quantities of LAC-34. […] After observing this phenomenon with ethanol, 0.125 g of isopropanol was added to 0.25 g of LAC-34. […] This was approximately 526 mg/mL.

[4] = Solubility of LAC-34 in binary mixtures of solvent and water (anti-solvent); assay type: physicochemical
Protocol: Due to the very high solubility of LAC-34 free base in numerous volatile solvents, it was determined to be necessary to find and add an anti-solvent in order to reach saturation of the solutions of LAC-34. The efficacy of water is an anti-solvent for LAC-34 free base was investigated in the present studies.

[5] = Ternary solubility studies: PG/ethanol solutions titrated with water until cloudy; assay type: physicochemical
Protocol: Therefore, several solutions were made where PG would be saturated or almost saturated with LAC-34 (i.e., […]). A quantity of ethanol was added to act at the volatile solvent. Each solution was titrated with water until it became cloudy. As with other titrations with water, the LAC-34 appeared to come out of solution as a liquid (oil) rather than a solid.

[6] = system: batrachotoxin-sensitive Na+ channel (site 2); assay: [3H]batrachotoxin binding to Na+ channels (site 2); design: species or system rat
human NaV1.5 channels = target: T2, human NaV1.5 channels (Homo sapiens, UniProt Q14524); assay: NaV1.5 electrophysiology (patch clamp) in HEK-293 cells; assay type: cell-based
T2 construct: expressed in transfected cells; host or cells: HEK-293

guinea pigs = assay: Dermal anesthesia after dermal application, pinprick method; assay type: in vivo, guinea pig; details: for Average Anesthetic Score: 2.0 ml of 5.0% solution in DMSO/water, 30 min occluded, maximal score 6
Protocol: The purpose of this study was to determine the efficacy of the free base and pharmaceutically acceptable salt forms of LAC-34 as dermal anesthetics, following dermal application of the compounds to guinea pigs. The Duration of Anesthesia is directly related to the Dermal Residence Times of the test articles.
Four groups of six male guinea pigs received a dose of 2.0 ml of a 5.0% solution of four test articles (LAC-34 base, LAC-34 mono-HCl salt, LAC-34 di-HCl salt and LAC-34 mesylate salt) that had been applied onto a two-inch square, 4-layer thick gauze pad on depilated dorsal skin of each guinea pig. Similarly, one group of guinea pigs received the vehicle, which consisted of DMSO/water and served as the control group. The gauze was occluded and the guinea pigs were wrapped for 30 min. Animals were assessed for initial pain reaction (anesthetic depth) at 15-minute intervals up to 3 hours and at 24 hours. An algesimeter, set at 10 g, was employed to assess the onset and depth of anesthesia using the pinprick method causing a twitch response or non-response. The “Average Anesthetic Score” was defined as number of probings not producing a dermal twitch response. Thus, a situation where there were no dermal twitch responses to six probings represent a maximal anesthetic effect and is denoted as an Average Anesthetic Score of 6. Duration of Anesthesia was in this study defined as the time from patch removal until the test scores have regressed to an average anesthetic score below 2.0. The Duration of Anesthesia in this type of experiments is directly related the duration of Dermal Residency for the test articles.

[7] = Water solubility (spectrophotometric, HPLC); assay type: physicochemical; details: LAC-34 as free base
Protocol: (§2) Water solubility and dissociation constants were determined for the free base of LAC-34 using standard spectrophotometric, HPLC and potentiometric methods.

[8] = Dissociation constant (pKa), potentiometric; assay type: physicochemical; details: LAC-34 as free base
Protocol: as §2

T1 sequence (Q9NY46 whole entry): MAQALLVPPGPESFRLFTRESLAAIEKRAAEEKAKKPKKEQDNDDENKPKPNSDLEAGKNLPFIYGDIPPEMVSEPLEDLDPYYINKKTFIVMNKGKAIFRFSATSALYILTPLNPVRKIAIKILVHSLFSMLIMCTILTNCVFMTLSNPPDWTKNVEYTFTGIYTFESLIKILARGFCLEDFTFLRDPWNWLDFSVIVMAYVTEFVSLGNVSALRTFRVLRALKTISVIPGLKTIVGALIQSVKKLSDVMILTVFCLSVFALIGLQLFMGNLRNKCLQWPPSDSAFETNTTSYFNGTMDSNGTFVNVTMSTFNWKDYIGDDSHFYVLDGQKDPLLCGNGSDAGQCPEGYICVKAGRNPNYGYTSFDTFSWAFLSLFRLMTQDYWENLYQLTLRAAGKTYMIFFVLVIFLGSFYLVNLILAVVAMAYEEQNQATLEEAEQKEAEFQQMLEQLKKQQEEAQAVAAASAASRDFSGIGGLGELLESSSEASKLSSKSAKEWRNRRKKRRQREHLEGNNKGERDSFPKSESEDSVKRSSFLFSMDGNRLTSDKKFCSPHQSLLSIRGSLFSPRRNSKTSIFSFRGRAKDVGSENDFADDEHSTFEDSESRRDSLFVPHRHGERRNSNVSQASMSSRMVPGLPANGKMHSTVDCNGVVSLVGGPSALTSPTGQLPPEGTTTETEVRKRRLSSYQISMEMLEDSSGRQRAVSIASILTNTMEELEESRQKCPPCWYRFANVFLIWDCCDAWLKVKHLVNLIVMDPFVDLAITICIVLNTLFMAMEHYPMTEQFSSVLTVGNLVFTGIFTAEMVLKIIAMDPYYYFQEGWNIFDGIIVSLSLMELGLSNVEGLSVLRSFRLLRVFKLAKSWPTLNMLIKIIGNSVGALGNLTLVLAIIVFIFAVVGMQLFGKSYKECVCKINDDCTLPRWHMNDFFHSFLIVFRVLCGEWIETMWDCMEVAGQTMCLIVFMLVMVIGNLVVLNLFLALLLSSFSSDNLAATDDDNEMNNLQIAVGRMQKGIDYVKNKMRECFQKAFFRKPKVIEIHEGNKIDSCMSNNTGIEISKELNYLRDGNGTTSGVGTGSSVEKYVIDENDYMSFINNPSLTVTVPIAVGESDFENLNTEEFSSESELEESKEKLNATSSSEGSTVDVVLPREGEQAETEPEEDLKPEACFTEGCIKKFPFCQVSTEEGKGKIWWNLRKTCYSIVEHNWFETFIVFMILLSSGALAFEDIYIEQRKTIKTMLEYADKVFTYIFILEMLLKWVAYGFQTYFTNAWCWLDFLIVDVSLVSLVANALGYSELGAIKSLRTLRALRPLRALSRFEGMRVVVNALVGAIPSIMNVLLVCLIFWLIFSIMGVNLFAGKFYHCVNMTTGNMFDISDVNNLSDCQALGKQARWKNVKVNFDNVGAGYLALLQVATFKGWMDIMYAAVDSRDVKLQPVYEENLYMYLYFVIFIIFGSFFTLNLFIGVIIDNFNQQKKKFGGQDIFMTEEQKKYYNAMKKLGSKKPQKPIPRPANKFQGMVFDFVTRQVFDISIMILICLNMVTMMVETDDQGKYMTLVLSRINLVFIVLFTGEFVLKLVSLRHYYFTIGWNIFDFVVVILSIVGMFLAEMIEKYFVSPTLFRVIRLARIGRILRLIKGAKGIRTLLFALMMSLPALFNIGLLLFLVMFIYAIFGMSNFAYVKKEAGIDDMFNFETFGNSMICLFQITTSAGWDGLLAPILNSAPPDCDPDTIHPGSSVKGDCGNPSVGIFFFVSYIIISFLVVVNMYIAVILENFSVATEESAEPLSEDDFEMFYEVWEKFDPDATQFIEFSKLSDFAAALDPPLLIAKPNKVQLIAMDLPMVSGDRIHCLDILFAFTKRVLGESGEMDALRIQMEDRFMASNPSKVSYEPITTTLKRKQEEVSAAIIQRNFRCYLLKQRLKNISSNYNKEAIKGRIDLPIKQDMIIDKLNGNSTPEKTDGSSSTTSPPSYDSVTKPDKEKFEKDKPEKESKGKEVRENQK
T2 sequence (Q14524 whole entry): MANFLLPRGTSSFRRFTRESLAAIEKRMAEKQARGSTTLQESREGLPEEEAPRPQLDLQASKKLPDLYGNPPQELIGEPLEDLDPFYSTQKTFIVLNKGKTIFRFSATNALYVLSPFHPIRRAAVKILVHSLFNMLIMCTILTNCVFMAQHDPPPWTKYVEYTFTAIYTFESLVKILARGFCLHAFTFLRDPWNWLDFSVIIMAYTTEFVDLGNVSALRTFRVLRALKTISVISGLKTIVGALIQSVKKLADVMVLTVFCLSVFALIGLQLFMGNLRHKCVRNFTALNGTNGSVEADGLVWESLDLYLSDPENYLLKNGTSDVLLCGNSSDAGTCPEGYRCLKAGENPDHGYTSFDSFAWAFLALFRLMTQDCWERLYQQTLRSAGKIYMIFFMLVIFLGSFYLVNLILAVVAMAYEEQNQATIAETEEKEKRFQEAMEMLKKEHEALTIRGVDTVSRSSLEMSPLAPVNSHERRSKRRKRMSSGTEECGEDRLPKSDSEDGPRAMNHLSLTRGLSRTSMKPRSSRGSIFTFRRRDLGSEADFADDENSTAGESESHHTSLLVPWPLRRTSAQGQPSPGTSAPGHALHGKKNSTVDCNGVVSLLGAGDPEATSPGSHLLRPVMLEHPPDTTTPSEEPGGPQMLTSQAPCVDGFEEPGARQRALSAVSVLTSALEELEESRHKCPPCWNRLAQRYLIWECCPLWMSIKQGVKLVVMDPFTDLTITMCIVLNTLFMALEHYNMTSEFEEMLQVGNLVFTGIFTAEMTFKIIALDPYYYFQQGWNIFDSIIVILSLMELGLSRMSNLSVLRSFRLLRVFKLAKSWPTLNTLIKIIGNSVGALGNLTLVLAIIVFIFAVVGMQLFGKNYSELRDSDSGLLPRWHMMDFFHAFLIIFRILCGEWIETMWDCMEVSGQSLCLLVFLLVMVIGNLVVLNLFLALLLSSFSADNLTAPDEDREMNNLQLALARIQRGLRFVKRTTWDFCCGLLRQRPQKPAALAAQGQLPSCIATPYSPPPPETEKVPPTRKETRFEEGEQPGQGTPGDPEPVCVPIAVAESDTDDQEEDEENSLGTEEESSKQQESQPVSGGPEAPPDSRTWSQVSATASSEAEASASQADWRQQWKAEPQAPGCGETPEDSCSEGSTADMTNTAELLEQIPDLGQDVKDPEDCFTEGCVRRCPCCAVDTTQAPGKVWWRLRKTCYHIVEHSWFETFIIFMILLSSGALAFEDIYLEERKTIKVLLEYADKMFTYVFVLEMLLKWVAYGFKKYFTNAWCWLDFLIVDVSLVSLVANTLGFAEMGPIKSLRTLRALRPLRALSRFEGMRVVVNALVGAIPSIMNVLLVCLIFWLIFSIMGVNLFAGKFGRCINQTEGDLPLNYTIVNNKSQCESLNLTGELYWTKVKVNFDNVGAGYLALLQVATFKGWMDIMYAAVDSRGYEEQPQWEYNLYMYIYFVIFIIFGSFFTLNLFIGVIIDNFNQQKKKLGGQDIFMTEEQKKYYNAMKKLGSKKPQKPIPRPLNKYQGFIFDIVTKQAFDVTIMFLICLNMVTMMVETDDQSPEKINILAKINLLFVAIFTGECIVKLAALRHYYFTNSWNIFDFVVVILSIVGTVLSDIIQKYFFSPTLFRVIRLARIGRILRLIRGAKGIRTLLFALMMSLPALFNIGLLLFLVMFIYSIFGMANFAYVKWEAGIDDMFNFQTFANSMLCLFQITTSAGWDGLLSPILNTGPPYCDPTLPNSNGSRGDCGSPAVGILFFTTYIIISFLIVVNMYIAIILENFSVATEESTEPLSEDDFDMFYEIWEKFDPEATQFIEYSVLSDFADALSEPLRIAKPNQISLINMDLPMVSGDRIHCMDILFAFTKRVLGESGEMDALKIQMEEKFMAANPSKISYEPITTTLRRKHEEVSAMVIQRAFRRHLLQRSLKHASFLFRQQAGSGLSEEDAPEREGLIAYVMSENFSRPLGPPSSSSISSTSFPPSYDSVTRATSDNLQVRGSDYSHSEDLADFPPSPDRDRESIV

SMILES: CCN(CC)CC(=O)Nc1c(C)cccc1C [Lidocaine, reference compound]
inhibition at 2000 µM (human NaV1.3 channels; HEK293, read-out: inhibition of NaV1.3 channels): 70%

SMILES: c1ccc(N(CCC2CCCCN2)C2Cc3ccccc3C2)cc1 (racemic) [LAC-34, 2-[2-(N-Phenyl-N-2-indanyl)aminoethyl]piperidine]
solubility ([1]; oil or lipid, in isopropyl myristate): > 78 mg/mL | solubility ([1]; oil or lipid, in isopropyl palmitate): 50 to 100 mg/mL (≈ 156 to 312 mM) | solubility ([1]; oil or lipid, in mineral oil): < 50 mg/mL | solubility ([1]; organic solvent or mixture, in benzyl alcohol): > 100 mg/mL | solubility ([1]; organic solvent or mixture, in dibutyl adipate): > 79 mg/mL | solubility ([1]; organic solvent or mixture, in ethanol): > 86 mg/mL | solubility ([1]; organic solvent or mixture, in hexylene glycol): > 75 mg/mL | solubility ([1]; organic solvent or mixture, in isopropyl alcohol): > 79 mg/mL | solubility ([1]; organic solvent or mixture, in propylene carbonate): > 78 mg/mL | solubility ([1]; organic solvent or mixture, in propylene glycol): > 76 mg/mL | Physical state at 4° C. ([2]; 5% LAC-34 in isopropyl alcohol): suspension | Physical state at 4° C. ([2]; 5% LAC-34 in isopropyl myristate): suspension | Physical state at 4° C. ([2]; 5% LAC-34 in isopropyl palmitate): solid | Physical state at 4° C. ([2]; 5% LAC-34 in propylene glycol): gel | Physical state at 4° C. ([2]; 20% LAC-34 in benzyl alcohol): solution | solubility ([3]; capric/caprylic triglycerides (CCT), oil or lipid, in capric/caprylic triglycerides (CCT)): 195 mg/mL (≈ 608 mM) | solubility ([3]; dimethylsulfoxide (DMSO), organic solvent or mixture, in dimethylsulfoxide (DMSO)): 215 mg/mL (≈ 671 mM) | solubility ([3]; ethanol, organic solvent or mixture, in ethanol (never saturated)): > 2000 mg/mL | solubility ([3]; isopropyl myristate (IPM), oil or lipid, in isopropyl myristate (IPM)): 184 mg/mL (≈ 574 mM) | solubility ([3]; pentane, organic solvent or mixture, in pentane, value uncertain, pentane evaporates rapidly): 150 mg/mL (≈ 468 mM) | solubility ([3]; propylene glycol (PG), organic solvent or mixture, in propylene glycol (PG)): 149 mg/mL (≈ 465 mM) | solubility ([3]; water, in water): 0.005 mg/mL (≈ 0.0156 mM) | solubility ([4]; DMSO with 5% water, organic solvent or mixture, DMSO, 5% water, previous tests): ≥ 100 mg/mL | solubility ([4]; DMSO with 50% water, aqueous with cosolvent or surfactant or cyclodextrin, DMSO, 50% water, read-out: Solubility of LAC-34 in mixture of solvent and water): 1.7 mg/mL (≈ 5.3 mM) | solubility ([4]; DMSO with 90% water, aqueous with cosolvent or surfactant or cyclodextrin, DMSO, 90% water, read-out: Solubility of LAC-34 in mixture of solvent and water): 0.45 mg/mL (≈ 1.4 mM) | solubility ([4]; DMSO, 0% water, organic solvent or mixture): 215 mg/mL (≈ 671 mM) | solubility ([4]; ethanol with 15% water, organic solvent or mixture, kinetic from dmso stock, ethanol, 15% water, titrated from an ethanol/LAC-34 solution with water): 63 mg/mL (≈ 197 mM) | solubility ([4]; ethanol with 20% water, organic solvent or mixture, kinetic from dmso stock, ethanol, 20% water, titrated from an ethanol/LAC-34 solution with water): 33 mg/mL (≈ 103 mM) | solubility ([4]; ethanol with 30% water, organic solvent or mixture, kinetic from dmso stock, ethanol, 30% water, titrated from an ethanol/LAC-34 solution with water): 7 mg/mL (≈ 21.8 mM) | solubility ([4]; ethanol, 0% water, organic solvent or mixture): > 2000 mg/mL | solubility ([4]; propylene glycol with 1% water, organic solvent or mixture, PG, 1% water): 139 mg/mL (≈ 434 mM) | solubility ([4]; propylene glycol with 2.5% water, organic solvent or mixture, PG, 2.5% water): 104 mg/mL (≈ 325 mM) | solubility ([4]; propylene glycol with 5% water, organic solvent or mixture, PG, 5% water): 63 mg/mL (≈ 197 mM) | solubility ([4]; propylene glycol with 10% water, organic solvent or mixture, PG, 10% water): 29 mg/mL (≈ 90.5 mM) | solubility ([4]; propylene glycol with 20% water, organic solvent or mixture, PG, 20% water): 8.7 mg/mL (≈ 27.1 mM) | solubility ([4]; propylene glycol with 50% water, aqueous with cosolvent or surfactant or cyclodextrin, PG, 50% water, read-out: Solubility of LAC-34 in mixture of solvent and water): 0.37 mg/mL (≈ 1.15 mM) | solubility ([4]; propylene glycol with 75% water, aqueous with cosolvent or surfactant or cyclodextrin, PG, 75% water, read-out: Solubility of LAC-34 in mixture of solvent and water): 0.075 mg/mL (≈ 0.234 mM) | solubility ([4]; propylene glycol, organic solvent or mixture, PG, 0% water): 149 mg/mL (≈ 465 mM) | Saturation Concentration of LAC-34 ([5]; 0.150 g LAC-34, 1.0 g PG, 0.5 g ethanol, 0.317 g water titrated): 7.6 % w/w | Saturation Concentration of LAC-34 ([5]; 0.150 g LAC-34, 1.0 g PG, 1.0 g ethanol, 0.601 g water titrated): 5.4 % w/w | Saturation Concentration of LAC-34 ([5]; 0.200 g LAC-34, 1.0 g PG, 3.0 g ethanol, 1.880 g water titrated): 3.3 % w/w | Potency relative to lidocaine, batrachotoxin-sensitive Na-channels ([6]; calculated from IC50 values): approximately 210 times | IC50 ([6]; rat cerebral cortex, 10 nM ligand, 60 min/22° C., read-out: IC50, inhibition of [3H]batrachotoxin specific binding): 247 nM | IC50 (human NaV1.3 channels; HEK-293 cells, patch clamp): 4000 nM | Potency relative to lidocaine, NaV1.3 channels (human NaV1.3 channels; calculated): more than 200 times | IC50 (human NaV1.5 channels): 600 nM | Potency relative to lidocaine, NaV1.5 channels (human NaV1.5 channels; calculated): about 500 times | Average Anesthetic Score (guinea pigs; 15 min after patch removal): 4.8 | Average Anesthetic Score (guinea pigs; 30 min after patch removal): 4.8 | Average Anesthetic Score (guinea pigs; 60 min after patch removal): 4.4 | Average Anesthetic Score (guinea pigs; 90 min after patch removal): 3.3 | Average Anesthetic Score (guinea pigs; 180 min after patch removal): 2.2 | Maximal Depth of Anesthesia (guinea pigs; highest Average Anesthetic Score after patch removal, 5.0% solution): 4.8 | Duration of Anesthesia (guinea pigs; time from patch removal until average anesthetic score below 2.0, 5.0% solution): 180 min | solubility [7]: 0.005 mg/mL (≈ 0.0156 mM) | pKa [8]: 8.09 ± 0.23

solubility [7]: 0.356 mg/mL (≈ 1.35 mM) | pKa [8]: 8.51 ± 0.12
SMILES: CCCCNc1ccc(C(=O)OCCN(C)C)cc1 [Tetracaine, reference compound]
